Starred links: 1 amine or outer side, 2 acyl side, 3 side chain; linkers in the order of their positions; H or OH if unused. Positions of bridges follow the written chain, without caps; N, C: chain ends. Non-standard residues stand in square brackets, D forms with d. Residues, ends and D or L forms follow the SMILES beside them. *: point of attachment. hTyr(3S-OH,4S-OH,3'-OSO3H) = N[C@H](C(=O)O)[C@H](O)[C@@H](O)c1ccc(O)c(OS(=O)(=O)O)c1; Orn(4R-OH,5R-OH) = O=C([C@H](C[C@@H](O)[C@@H](O)N[*:3])N[*:1])[*:2]; Pro(3S-OH,4S-Me) = C[C@H]1CN[C@H](C(=O)O)[C@H]1O; X1 = CCCCCOc1ccc(-c2cc(-c3ccc(C(=O)*)cc3)no2)cc1; Gln(3R-OH) = NC(=O)C[C@@H](O)[C@H](N)C(=O)O; Hyp = O=C(O)[C@@H]1C[C@@H](O)CN1
Experiments:
[1] = tested on: EL6 (CaCdr1p Q1445R); assay: MIC, liquid microdilution; format: cell-based, Saccharomyces cerevisiae; conditions: 48 h
[2] = tested on: TM5 (CaCdr1p V674F); assay: MIC, liquid microdilution; format: cell-based, Saccharomyces cerevisiae; conditions: 48 h
[3] = tested on: EL4-1 (CaCdr1p Q1226K); assay: MIC, liquid microdilution; format: cell-based, Saccharomyces cerevisiae; conditions: 48 h
[4] = tested on: EL3 (CaCdr1p Q714K); assay: MIC, liquid microdilution; format: cell-based, Saccharomyces cerevisiae; conditions: 48 h
[5] = tested on: AD/pABC3 (Control); assay: MIC, liquid microdilution; format: cell-based, Saccharomyces cerevisiae; conditions: 48 h
[6] = tested on: EL4-2 (CaCdr1p Q1226R); assay: MIC, liquid microdilution; format: cell-based, Saccharomyces cerevisiae; conditions: 48 h
[7] = tested on: EL1/TM2 (CaCdr1p G547R); assay: MIC, liquid microdilution; format: cell-based, Saccharomyces cerevisiae; conditions: 48 h
[8] = tested on: AD/CDR1 (Wild type CaCdr1p); assay: MIC, liquid microdilution; format: cell-based, Saccharomyces cerevisiae; conditions: 48 h
[9] = biological target: Cdr1p ATPase (Candida albicans, UniProt P43071); assay: CaCdr1p ATPase inhibition assay; format: biochemical; conditions: read-out: IC50 Cdr1p ATPase; wild type CaCdr1p, oligomycin-sensitive ATPase, pH 7.5
Cdr1p ATPase, sequence (P43071 whole entry): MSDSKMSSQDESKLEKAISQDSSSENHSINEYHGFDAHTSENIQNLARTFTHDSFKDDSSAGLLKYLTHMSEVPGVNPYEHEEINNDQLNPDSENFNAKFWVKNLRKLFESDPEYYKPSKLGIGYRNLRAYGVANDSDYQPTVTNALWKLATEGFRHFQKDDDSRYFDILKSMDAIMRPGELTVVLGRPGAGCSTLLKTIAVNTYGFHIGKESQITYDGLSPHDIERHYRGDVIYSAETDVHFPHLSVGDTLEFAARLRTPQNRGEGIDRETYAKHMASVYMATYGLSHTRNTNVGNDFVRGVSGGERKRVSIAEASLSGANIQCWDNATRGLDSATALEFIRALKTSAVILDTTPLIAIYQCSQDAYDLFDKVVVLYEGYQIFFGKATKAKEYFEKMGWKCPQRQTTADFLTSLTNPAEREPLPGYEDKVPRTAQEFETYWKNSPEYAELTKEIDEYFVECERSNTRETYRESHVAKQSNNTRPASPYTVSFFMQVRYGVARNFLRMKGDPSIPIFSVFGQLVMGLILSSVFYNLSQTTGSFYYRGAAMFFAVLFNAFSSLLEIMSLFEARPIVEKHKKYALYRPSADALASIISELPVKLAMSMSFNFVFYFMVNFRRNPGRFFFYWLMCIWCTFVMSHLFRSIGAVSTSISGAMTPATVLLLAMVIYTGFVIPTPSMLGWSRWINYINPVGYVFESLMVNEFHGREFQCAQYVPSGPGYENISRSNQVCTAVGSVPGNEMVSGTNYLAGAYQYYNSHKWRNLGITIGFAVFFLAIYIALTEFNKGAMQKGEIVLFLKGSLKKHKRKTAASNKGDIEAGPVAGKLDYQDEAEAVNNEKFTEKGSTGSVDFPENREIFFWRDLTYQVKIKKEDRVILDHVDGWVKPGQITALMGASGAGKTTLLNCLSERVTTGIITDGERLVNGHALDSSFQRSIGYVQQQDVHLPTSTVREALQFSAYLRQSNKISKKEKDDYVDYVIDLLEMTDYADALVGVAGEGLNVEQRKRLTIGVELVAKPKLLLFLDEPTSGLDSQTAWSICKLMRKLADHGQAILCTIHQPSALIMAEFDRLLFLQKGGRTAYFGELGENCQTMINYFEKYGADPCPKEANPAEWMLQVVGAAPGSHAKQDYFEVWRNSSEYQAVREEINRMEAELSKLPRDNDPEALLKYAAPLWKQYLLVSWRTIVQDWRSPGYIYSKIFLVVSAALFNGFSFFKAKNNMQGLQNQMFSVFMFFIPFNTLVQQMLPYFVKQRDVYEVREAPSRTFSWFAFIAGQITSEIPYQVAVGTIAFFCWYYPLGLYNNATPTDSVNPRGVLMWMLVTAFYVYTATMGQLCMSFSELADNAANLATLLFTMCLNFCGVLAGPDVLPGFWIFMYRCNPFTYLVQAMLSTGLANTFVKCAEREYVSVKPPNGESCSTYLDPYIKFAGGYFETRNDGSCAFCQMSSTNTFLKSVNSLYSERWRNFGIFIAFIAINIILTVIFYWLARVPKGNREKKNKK

[10] = EL6, Q1445R, milbemycins and micafungin, I95, CSM pH 7.0, 30°C
[11] = TM5, V674F, milbemycins and micafungin, I95, CSM pH 7.0, 30°C
[12] = EL4-1, Q1226K, milbemycins and micafungin, I95, CSM pH 7.0, 30°C
[13] = EL3, Q714K, milbemycins and micafungin, I95, CSM pH 7.0, 30°C
[14] = AD/pABC3, Control, milbemycins and micafungin, I95, CSM pH 7.0, 30°C
[15] = EL4-2, Q1226R, milbemycins and micafungin, I95, CSM pH 7.0, 30°C
[16] = EL1/TM2, G547R, milbemycins and micafungin, I95, CSM pH 7.0, 30°C
[17] = AD/CDR1, Wild type, milbemycins and micafungin, I95, CSM pH 7.0, 30°C

Row | Molecule | MIC ([1]; Saccharomyces cerevisiae, pH 7) | MIC ([2]; Saccharomyces cerevisiae, pH 7) | MIC ([3]; Saccharomyces cerevisiae, pH 7) | MIC ([4]; Saccharomyces cerevisiae, pH 7) | MIC ([5]; Saccharomyces cerevisiae, pH 7) | MIC ([6]; Saccharomyces cerevisiae, pH 7) | MIC ([7]; Saccharomyces cerevisiae, pH 7) | MIC ([8]; Saccharomyces cerevisiae, pH 7) | IC50 [9] [nM] | MIC [1, 10] [µg/mL] | MIC [2, 11] [µg/mL] | MIC [3, 12] [µg/mL] | MIC [4, 13] [µg/mL] | MIC [5, 14] [µg/mL] | MIC [6, 15] [µg/mL] | MIC [7, 16] [µg/mL] | MIC [8, 17] [µg/mL]
1 | OC(Cn1cncn1)(Cn1cncn1)c1ccc(F)cc1F [Fluconazole] | 240 µg/mL | 160 µg/mL | 80 µg/mL | 240 µg/mL | 0.5 µg/mL | 240 µg/mL | 100 µg/mL | 240 µg/mL | – | – | – | – | – | – | – | – | –
2 | D-NH2-FFKWQRRR-CONH2 | – | – | – | – | – | – | – | – | 2000 | – | – | – | – | – | – | – | –
3 | CN1CCN(CCCN2c3ccccc3Sc3ccc(C(F)(F)F)cc32)CC1 [Trifluoperazine] | 80 µM | 20 µM | 40 µM | 40 µM | 5 µM | 40 µM | 40 µM | 40 µM | – | – | – | – | – | – | – | – | –
4 | D-NH2-FFKWQRRR-CONH2 + Mtr [RC21] | – | – | – | – | – | – | – | – | 1300 | – | – | – | – | – | – | – | –
5 | Milbemycin α26 | – | – | – | – | – | – | – | – | – | 8 | 8 | 8 | 8 | 8 | 8 | 8 | 8
6 | C[C@@H](c1ncncc1F)[C@](O)(Cn1cncn1)c1ccc(F)cc1F [Voriconazole] | 10 µg/mL | 4 µg/mL | 2.5 µg/mL | 8 µg/mL | 0.156 µg/mL | 6 µg/mL | 2.5 µg/mL | 8 µg/mL | – | – | – | – | – | – | – | – | –
7 | Clc1ccc(COC(Cn2ccnc2)c2ccc(Cl)cc2Cl)c(Cl)c1 (stereo not drawn) [Miconazole] | 3 µg/mL | 2 µg/mL | 1 µg/mL | 2.5 µg/mL | 0.156 µg/mL | 3 µg/mL | 1 µg/mL | 2.5 µg/mL | – | – | – | – | – | – | – | – | –
8 | CCCCCOc1ccc(-c2cc(-c3ccc(C(=O)N[C@H]4C[C@@H](O)[C@@H](O)NC(=O)[C@@H]5[C@@H](O)[C@@H](C)CN5C(=O)[C@H]([C@H](O)CC(N)=O)NC(=O)[C@H]([C@H](O)[C@@H](O)c5ccc(O)c(OS(=O)(=O)O)c5)NC(=O)[C@@H]5C[C@@H](O)CN5C(=O)[C@H]([C@@H](C)O)NC4=O)cc3)no2)cc1 [Micafungin] (X1-[Orn(4R-OH,5R-OH)]T[Hyp][hTyr(3S-OH,4S-OH,3'-OSO3H)][Gln(3R-OH)][Pro(3S-OH,4S-Me)]; lactam 1-C) | – | 0.125 µg/mL | 0.125 µg/mL | – | 0.25 µg/mL | 0.125 µg/mL | 0.125 µg/mL | 0.125 µg/mL | – | – | – | – | – | – | – | – | –
9 | CC(C)=CC(=O)OCC1=C[C@H]2C(=O)O[C@H]3C[C@@H](C/C=C(\C)C[C@@H](C)/C=C/C=C4\CO[C@H]([C@@H]1O)[C@@]42O)O[C@@]1(CC[C@H](C)[C@@H](C)O1)C3 [Milbemycin α11] | – | – | – | – | – | – | – | – | – | 4 | >8 | 8 | 4 | 4 | 4 | 8 | 4
10 | CC/N=c1\cc2oc3cc(NCC)c(C)cc3c(-c3ccccc3C(=O)OCC)c-2cc1C [Rhodamine 6G] | 75 µM | 50 µM | 50 µM | 75 µM | 1 µM | 50 µM | 50 µM | 75 µM | – | – | – | – | – | – | – | – | –
11 | C/C=C(\C)C(=O)OCC1=C[C@H]2C(=O)O[C@H]3C[C@@H](C/C=C(\C)C[C@@H](C)/C=C/C=C4\CO[C@H]([C@@H]1O)[C@@]42O)O[C@@]1(CC[C@H](C)[C@@H](C)O1)C3 [Milbemycin α20] | – | – | – | – | – | – | – | – | – | >8 | >8 | >8 | >8 | >8 | >8 | >8 | >8
